The assay relates to P388 leukemia ip, CD2F1 mice, survival T/C. In words: NCI In Vivo Anticancer Drug Screen. Data for tumor model P388 Leukemia (intraperitoneal) in CD2F1 (CDF1) mice. The note with it: endpoint: median survival time, higher = longer survival. In a few lines: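 Mice carrying the transplanted tumor received test compound or vehicle. Survival was recorded in each group, and the value is the treated-group measurement divided by that of the vehicle-treated control group.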

Where [1] appears, read: dose: 50.0 mg/kg/injection, schedule: Q01DX005 (ip), vehicle: saline with Tween-80.
Setting [2] is: dose: 100.0 mg/kg/injection, schedule: Q01DX005 (ip), vehicle: saline with Tween-80.
Where [3] appears, read: dose: 200.0 mg/kg/injection, schedule: Q01DX005 (ip), vehicle: saline with Tween-80.
Setting [4] is: dose: 50.0 mg/kg/injection, schedule: Q01DX009 (ip), vehicle: saline with Tween-80.
[5] abbreviates: dose: 100.0 mg/kg/injection, schedule: Q01DX009 (ip), vehicle: saline with Tween-80.
Where [6] appears, read: dose: 25.0 mg/kg/injection, schedule: Q01DX009 (ip), vehicle: saline.
[7] abbreviates: dose: 50.0 mg/kg/injection, schedule: Q01DX009 (ip), vehicle: saline.
Where [8] appears, read: dose: 100.0 mg/kg/injection, schedule: Q01DX009 (ip), vehicle: saline.
Where [9] appears, read: dose: 200.0 mg/kg/injection, schedule: Q01DX009 (ip), vehicle: saline with Tween-80.
Setting [10] is: dose: 200.0 mg/kg/injection, schedule: Q01DX009 (ip), vehicle: saline.

“And” between values parts separate entries of the source, which are not always exact repeats. Identical values can stand only once. Toxic doses and inconclusive results are not listed.

As to `COc1ccc(C=C2C(=O)C=CC2=O)cc1`, the T/C by setting is: (dose: 1.25 mg/kg/injection, schedule: Q04DX002 (ip), vehicle: saline with Tween-80) 106 % of control; (dose: 2.5 mg/kg/injection, schedule: Q04DX002 (ip), vehicle: saline with Tween-80) 97 % of control; (dose: 5.0 mg/kg/injection, schedule: Q04DX002 (ip), vehicle: saline with Tween-80) 99 % of control.
For `N#Cc1ccc(NC(=O)Nc2ccc(Cc3ccc(NC(=O)Nc4ccc(C#N)cc4)cc3)cc2)cc1`, the T/C was 97 % of control (dose: 15.0 mg/kg/injection, schedule: Q01DX005 (ip), vehicle: Klucel (hydroxypropylcellulose) (HPC)); 90 % of control (dose: 30.0 mg/kg/injection, schedule: Q01DX005 (ip), vehicle: Klucel (hydroxypropylcellulose) (HPC)); 87 % of control (dose: 60.0 mg/kg/injection, schedule: Q01DX005 (ip), vehicle: Klucel (hydroxypropylcellulose) (HPC)); 94 % of control (dose: 120.0 mg/kg/injection, schedule: Q01DX005 (ip), vehicle: Klucel (hydroxypropylcellulose) (HPC)).
On to `CCC1(CCC(=O)OC)CCC[N+]2=C1c1[nH]c3ccc(Br)cc3c1CC2` (stereo unspecified), for which the T/C (dose: 6.25 mg/kg/injection, schedule: Q01DX005 (ip), vehicle: saline with Tween-80) is 97 % of control; the T/C (dose: 12.5 mg/kg/injection, schedule: Q01DX005 (ip), vehicle: saline with Tween-80) is 100 % of control; the T/C (dose: 25.0 mg/kg/injection, schedule: Q01DX005 (ip), vehicle: saline with Tween-80) was 94 % of control; the T/C (dose: 50.0 mg/kg/injection, schedule: Q01DX005 (ip), vehicle: saline) is 86 % of control.
With `O/N=C1/CCC/C(=N/O)C1`, the T/C was 100 % of control under setting [1], 98 % of control under setting [2] and 107 % of control under setting [3].
As for `c1cc2ccc3ccc(C4CO4)c4ccc(c1)c2c34` (stereo unspecified), the T/C is, setting by setting: (dose: 6.25 mg/kg/injection, schedule: Q01DX009 (ip), vehicle: Klucel (hydroxypropylcellulose) (HPC)) 99 % of control; (dose: 12.5 mg/kg/injection, schedule: Q01DX009 (ip), vehicle: Klucel (hydroxypropylcellulose) (HPC)) 103 % of control; (dose: 25.0 mg/kg/injection, schedule: Q01DX009 (ip), vehicle: Klucel (hydroxypropylcellulose) (HPC)) 101 % of control.
For `COc1ccc(/C=C/c2ccc(S(=O)(=O)c3ccc(/C=C/c4ccc(OC)cc4)c(NC(C)=O)c3)cc2NC(C)=O)cc1`, the T/C reads like this: (dose: 25.0 mg/kg/injection, schedule: Q01DX009 (ip), vehicle: saline with Tween-80) 97 % of control; under setting [4], 97 % of control; under setting [5], 92 % of control.
In the case of `CN(C(N)=O)C1CCCC1`, the T/C runs as follows: (dose: 100.0 mg/kg/injection, schedule: Q04DX003 (ip), vehicle: saline with Tween-80) 100 % of control; (dose: 200.0 mg/kg/injection, schedule: Q04DX003 (ip), vehicle: saline with Tween-80) 109 % of control; (dose: 400.0 mg/kg/injection, schedule: Q04DX003 (ip), vehicle: saline with Tween-80) 113 % of control.
Take `[CH3][Sn]1([CH3])[O]c2ccccc2C=NCCN=Cc2ccccc2[O]1`: the T/C is, setting by setting: (dose: 12.5 mg/kg/injection, schedule: Q01DX009 (ip), vehicle: saline) 100 % of control and 91 % of control; under setting [6], 106 % of control and 86 % of control; under setting [7], 91 % of control; under setting [8], 107 % of control.
For the compound `Cc1ccc(C2SCC(=O)N2CCN2C(=O)CSC2c2ccc(C)s2)s1` (stereo unspecified), the T/C is 101 % of control under setting [1], 109 % of control under setting [2] and 100 % of control under setting [3].
As to `CCCCCCCCCSc1ccc(C(=O)O)cc1`, the T/C is 109 % of control under setting [5]; 103 % of control under setting [9]; 105 % of control (dose: 400.0 mg/kg/injection, schedule: Q01DX009 (ip), vehicle: saline with Tween-80).
Turning to `O=C(NC(=O)c1c(F)cccc1F)Nc1ccc(Cl)nc1`, the T/C (dose: 3.13 mg/kg/injection, schedule: Q01DX009 (ip), vehicle: saline with Tween-80) was 105 % of control; the T/C (dose: 6.25 mg/kg/injection, schedule: Q01DX009 (ip), vehicle: saline with Tween-80) was 100 % of control; the T/C (dose: 12.5 mg/kg/injection, schedule: Q01DX009 (ip), vehicle: saline with Tween-80) is 102 % of control.
Take `CCCCCCCCCCCC(=O)NCCCCCC(=O)NC1C(C)OC(Nc2ncnc3nc[nH]c23)C(O)C1O` (stereo unspecified): the T/C reads like this: (dose: 0.5 mg/kg/injection, schedule: Q01DX009 (ip), vehicle: water) 99 % of control; (dose: 1.0 mg/kg/injection, schedule: Q01DX009 (ip), vehicle: water) 99 % of control; (dose: 2.0 mg/kg/injection, schedule: Q01DX009 (ip), vehicle: water) 115 % of control; (dose: 4.0 mg/kg/injection, schedule: Q01DX009 (ip), vehicle: water) 115 % of control; (dose: 8.0 mg/kg/injection, schedule: Q01DX009 (ip), vehicle: distilled water + Tween-80) 87 % of control; (dose: 8.0 mg/kg/injection, schedule: Q01DX009 (ip), vehicle: water) 117 % of control. For the same compound, the T/C reads like this: (dose: 16.0 mg/kg/injection, schedule: Q01DX009 (ip), vehicle: distilled water + Tween-80) 89 % of control; (dose: 32.0 mg/kg/injection, schedule: Q01DX009 (ip), vehicle: distilled water + Tween-80) 114 % of control; (dose: 64.0 mg/kg/injection, schedule: Q01DX009 (ip), vehicle: distilled water + Tween-80) 123 % of control.
With `O=C1Nc2ccccc2/C1=N/N=C/c1ccco1`, the T/C by setting is: (dose: 50.0 mg/kg/injection, schedule: Q01DX009 (ip), vehicle: Klucel (hydroxypropylcellulose) (HPC)) 96 % of control; (dose: 100.0 mg/kg/injection, schedule: Q01DX009 (ip), vehicle: Klucel (hydroxypropylcellulose) (HPC)) 87 % of control; (dose: 200.0 mg/kg/injection, schedule: Q01DX009 (ip), vehicle: Klucel (hydroxypropylcellulose) (HPC)) 88 % of control.
For the compound `CCC(c1ccc(OC)cc1)C(NCC(=O)N/N=C/c1ccccc1[N+](=O)[O-])c1ccc(OC)cc1` (stereo unspecified), the T/C reads like this: (dose: 3.12 mg/kg/injection, schedule: Q01DX001 (ip), vehicle: saline with Tween-80) 94 % of control; (dose: 6.25 mg/kg/injection, schedule: Q01DX001 (ip), vehicle: saline with Tween-80) 88 % of control; (dose: 12.5 mg/kg/injection, schedule: Q01DX001 (ip), vehicle: saline with Tween-80) 88 % of control; (dose: 400.0 mg/kg/injection, schedule: Q01DX001 (ip), vehicle: saline with Tween-80) 96 % of control.
In the case of `CC1CN1P1(N2CC2C)=NP(N2CC2C)(N2CC2C)=NP(N2CC2C)(N2CC2C)=N1` (stereo unspecified), the T/C was 100 % of control (dose: 12.5 mg/kg/injection, schedule: Q04DX003 (ip), vehicle: saline); 154 % of control under setting [6]; 112 % of control (dose: 25.0 mg/kg/injection, schedule: Q04DX003 (ip), vehicle: saline); 154 % of control (dose: 33.0 mg/kg/injection, schedule: Q01DX009 (ip), vehicle: saline with Tween-80); 170 % of control and 193 % of control under setting [4]; 172 % of control under setting [7]. The T/C runs as follows: (dose: 66.0 mg/kg/injection, schedule: Q04DX003 (ip), vehicle: saline) 154 % of control; (dose: 75.0 mg/kg/injection, schedule: Q01DX009 (ip), vehicle: saline with Tween-80) 218 % of control; under setting [5], 102 % of control; under setting [8], 90 % of control; (dose: 100.0 mg/kg/injection, schedule: Q04DX003 (ip), vehicle: saline) 181 % of control.
Take `COCCCN(Cc1cc(OC)c(OC)c(OC)c1)C(=S)Nc1cccc(Cl)c1`: the T/C by setting is: under setting [7], 92 % of control; under setting [8], 90 % of control; under setting [10], 94 % of control.
Take `CCOC(=S)c1cccc(C(=S)OCC)c1`: the T/C by setting is: under setting [4], 104 % of control; under setting [5], 100 % of control; under setting [9], 103 % of control.
On to `Clc1cccnc1Cl`, for which the T/C by setting is: under setting [7], 100 % of control and 110 % of control; under setting [8], 103 % of control and 105 % of control; under setting [10], 99 % of control and 106 % of control; (dose: 400.0 mg/kg/injection, schedule: Q01DX009 (ip), vehicle: saline) 97 % of control.
On to `COc1c(C)c(=O)n2c3ccccc3n(C)c2c1C#N`, for which the T/C is, setting by setting: (dose: 60.0 mg/kg/injection, schedule: Q01DX005 (ip), vehicle: saline with Tween-80) 103 % of control; (dose: 120.0 mg/kg/injection, schedule: Q01DX005 (ip), vehicle: saline with Tween-80) 107 % of control; (dose: 240.0 mg/kg/injection, schedule: Q01DX005 (ip), vehicle: saline with Tween-80) 99 % of control.
